From patent US8697739B2, “Bicyclic acetyl-CoA carboxylase inhibitors and uses thereof” (Novartis AG, priority 2010, dated 2014)

Target: T1, human acetyl-CoA carboxylase 2 (ACC2) (Homo sapiens, UniProt O00763)
T1 construct: The cDNA encoding amino acids 144 to 2458 of human acetyl-CoA carboxylase 2; made in house; host or cells: Sf9 insect cells (baculovirus, pFastBac1)
Assay: Acetyl-CoA carboxylase enzyme assay (malonyl-CoA formation by LC/MS/MS)
Assay type: biochemical
Conditions: recombinant human ACC2 (aa 144-2458); read-out: IC50 ACC2
Procedure, shortened: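 Malonyl-CoA formation was read by LC/MS/MS MRM against a [13C3]-malonyl-CoA internal standard, after acetic acid quench. The enzyme was baculovirus/Sf9-expressed human ACC2 residues 144–2458, given 15 minutes room-temperature compound preincubation in HEPES pH 7.5 buffer with MgCl2, citrate and DTT. Substrate solution held 50 μM acetyl-CoA, 120 μM ATP and 2 mM KHCO3.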

T1 sequence (O00763 144-2458): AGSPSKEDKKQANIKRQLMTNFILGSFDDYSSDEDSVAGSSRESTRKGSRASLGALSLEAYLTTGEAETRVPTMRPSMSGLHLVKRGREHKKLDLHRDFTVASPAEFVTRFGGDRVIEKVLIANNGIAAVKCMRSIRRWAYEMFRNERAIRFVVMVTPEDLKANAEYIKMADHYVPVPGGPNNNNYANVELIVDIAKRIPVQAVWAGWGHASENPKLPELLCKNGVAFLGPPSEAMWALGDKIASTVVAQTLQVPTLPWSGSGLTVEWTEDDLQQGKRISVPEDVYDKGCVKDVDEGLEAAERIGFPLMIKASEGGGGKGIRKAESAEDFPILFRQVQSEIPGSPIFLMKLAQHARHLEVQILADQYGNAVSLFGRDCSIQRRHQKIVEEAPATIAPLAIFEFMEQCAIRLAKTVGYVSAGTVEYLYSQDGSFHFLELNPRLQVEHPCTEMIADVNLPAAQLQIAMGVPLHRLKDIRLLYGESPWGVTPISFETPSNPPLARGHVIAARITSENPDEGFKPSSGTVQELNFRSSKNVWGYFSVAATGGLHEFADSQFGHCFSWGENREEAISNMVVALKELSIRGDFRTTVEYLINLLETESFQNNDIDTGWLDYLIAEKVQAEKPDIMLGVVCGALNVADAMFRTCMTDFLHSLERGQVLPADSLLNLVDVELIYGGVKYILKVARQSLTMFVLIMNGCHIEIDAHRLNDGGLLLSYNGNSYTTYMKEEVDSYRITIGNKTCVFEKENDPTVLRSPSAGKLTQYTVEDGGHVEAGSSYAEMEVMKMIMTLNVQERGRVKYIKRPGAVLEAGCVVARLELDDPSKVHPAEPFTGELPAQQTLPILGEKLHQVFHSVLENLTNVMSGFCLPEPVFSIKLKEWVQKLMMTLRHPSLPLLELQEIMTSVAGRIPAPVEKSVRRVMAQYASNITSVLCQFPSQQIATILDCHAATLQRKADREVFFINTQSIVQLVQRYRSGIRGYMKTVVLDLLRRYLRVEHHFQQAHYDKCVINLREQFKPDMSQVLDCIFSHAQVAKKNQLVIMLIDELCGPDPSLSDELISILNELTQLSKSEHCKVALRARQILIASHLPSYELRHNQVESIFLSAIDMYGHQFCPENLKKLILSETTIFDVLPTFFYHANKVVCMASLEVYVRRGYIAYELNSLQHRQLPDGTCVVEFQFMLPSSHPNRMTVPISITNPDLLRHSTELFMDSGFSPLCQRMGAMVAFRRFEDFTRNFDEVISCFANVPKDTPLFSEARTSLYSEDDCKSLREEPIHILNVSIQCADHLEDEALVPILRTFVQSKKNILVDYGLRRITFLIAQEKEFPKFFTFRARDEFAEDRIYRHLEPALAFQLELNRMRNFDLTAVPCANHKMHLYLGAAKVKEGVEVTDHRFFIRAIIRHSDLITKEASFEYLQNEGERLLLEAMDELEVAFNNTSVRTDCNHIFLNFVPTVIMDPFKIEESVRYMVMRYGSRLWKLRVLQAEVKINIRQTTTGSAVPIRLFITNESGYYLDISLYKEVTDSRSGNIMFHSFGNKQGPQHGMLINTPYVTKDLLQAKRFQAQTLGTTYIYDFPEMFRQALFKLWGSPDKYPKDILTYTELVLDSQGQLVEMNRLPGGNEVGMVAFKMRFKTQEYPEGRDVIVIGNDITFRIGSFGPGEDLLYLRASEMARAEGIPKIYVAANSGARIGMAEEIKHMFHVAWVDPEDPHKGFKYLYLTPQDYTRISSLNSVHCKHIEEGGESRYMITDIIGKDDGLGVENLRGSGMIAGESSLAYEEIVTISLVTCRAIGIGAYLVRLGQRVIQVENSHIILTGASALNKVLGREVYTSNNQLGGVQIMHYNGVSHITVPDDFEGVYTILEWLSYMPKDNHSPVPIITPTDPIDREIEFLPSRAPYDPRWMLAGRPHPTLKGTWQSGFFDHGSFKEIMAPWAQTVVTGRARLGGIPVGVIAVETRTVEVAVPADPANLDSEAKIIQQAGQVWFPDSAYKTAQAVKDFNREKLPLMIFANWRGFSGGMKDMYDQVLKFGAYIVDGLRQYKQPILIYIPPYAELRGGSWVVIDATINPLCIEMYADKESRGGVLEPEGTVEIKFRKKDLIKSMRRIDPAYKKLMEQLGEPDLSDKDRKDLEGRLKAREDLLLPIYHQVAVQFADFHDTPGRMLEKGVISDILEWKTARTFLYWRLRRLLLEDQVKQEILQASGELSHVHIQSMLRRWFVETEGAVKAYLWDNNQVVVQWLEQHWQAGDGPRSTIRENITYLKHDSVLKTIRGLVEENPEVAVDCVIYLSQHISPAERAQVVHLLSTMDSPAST

| SMILES | IC50 |
| --- | --- |
| O=C([C@H]1CC[C@H](NS(=O)(=O)c2cnc3c(c2)NCCS3)CC1)N1CCNC[C@@H]1c1ccccc1 [Example 192, N-((1S,4r)-4-((S)-2-phenylpiperazine-1-carbonyl)cyclohexyl)-2,3-dihydro-1H-pyrido[2,3-b][1,4]thiazine-7-sulfonamide] | 15 nM |
| O=C([C@H]1CC[C@H](NS(=O)(=O)c2cnc3c(c2)NCCS3)CC1)N1CCOCC1c1ccccc1 (some centres unmarked) [Example 193, N-((1r,4r)-4-(3-phenylmorpholine-4-carbonyl)cyclohexyl)-2,3-dihydro-1H-pyrido[2,3-b][1,4]thiazine-7-sulfonamide] | 15 nM |
| O=C([C@H]1CC[C@H](NS(=O)(=O)c2cnc3c(c2)NCCN3)CC1)N1CCOCC1c1ccccc1 (some centres unmarked) [Example 194, N-((1r,4r)-4-(3-phenylmorpholine-4-carbonyl)cyclohexyl)-1,2,3,4-tetrahydropyrido[3,2-b]pyrazine-7-sulfonamide] | 210 nM |
| C[C@@H](NC(=O)[C@H]1CC[C@H](NS(=O)(=O)c2ccc3c(c2)NC(=O)CC3(C)C)CC1)c1ccc(F)cc1 [Example 195, (1r,4R)-4-(4,4-dimethyl-2-oxo-1,2,3,4-tetrahydroquinoline-7-sulfonamido)-N-((R)-1-(4-fluorophenyl)ethyl)cyclohexanecarboxamide] | 335 nM |
| C[C@@H](NC(=O)[C@H]1CC[C@H](NS(=O)(=O)c2ccc3c(c2)NCCC3(C)C)CC1)c1ccc(F)cc1 [Example 196, (1r,4R)-4-(4,4-dimethyl-1,2,3,4-tetrahydroquinoline-7-sulfonamido)-N-((R)-1-(4-fluorophenyl)ethyl)cyclohexanecarboxamide] | 220 nM |
| C[C@@H](NC(=O)[C@]1(C)CC[C@@H](NS(=O)(=O)c2cnc3c(c2)NCCN3)CC1)c1ccc(F)cc1 [Example 197, (1r,4R)-N-((R)-1-(4-fluorophenyl)ethyl)-1-methyl-4-(1,2,3,4-tetrahydropyrido[3,2-b]pyrazine-7-sulfonamido)cyclohexanecarboxamide] | 40 nM |
| C[C@H](NC(=O)[C@H]1CC[C@@H](NS(=O)(=O)c2cnc3c(c2)NCCN3)CC1)c1ccc(F)cc1 [Example 198, (1s,4S)-N-((R)-1-(4-fluorophenyl)ethyl)-4-(1,2,3,4-tetrahydropyrido[3,2-b]pyrazine-7-sulfonamido)cyclohexanecarboxamide] | > 35000 nM |
| [2H]C1([2H])Nc2cc(S(=O)(=O)NC3CCC(C(=O)N[C@H](C)c4ccc(F)cc4)CC3)cnc2NC1([2H])[2H] (stereo partly drawn) [Example 199, (R)-N-(1-(4-fluorophenyl)ethyl)-4-(2,2,3,3-tetradeuterio-1,2,3,4-tetrahydropyrido[3,2-b]pyrazine-7-sulfonamido)cyclohexanecarboxamide] | 75 nM |
| CC(C)COC(=O)N1CCNc2ncc(S(=O)(=O)N[C@H]3CC[C@H](C(=O)N[C@H](C)c4ccc(F)cc4)CC3)cc21 [Example 200, isobutyl 7-(N-((1R,4r)-4-((R)-1-(4-fluorophenyl)ethylcarbamoyl)cyclohexyl)sulfamoyl)-3,4-dihydropyrido[3,2-b]pyrazine-1(2H)-carboxylate] | 60 nM |
| COCCNc1ccc2cc(S(=O)(=O)N[C@H]3CC[C@H](C(=O)N[C@H](C)c4ccc(F)cc4)CC3)ccc2n1 [Example 201, (1r,4R)-N-((R)-1-(4-fluorophenyl)ethyl)-4-(2-(2-methoxyethylamino)quinoline-6-sulfonamido)cyclohexanecarboxamide] | 80 nM |
| C[C@@H](NC(=O)[C@H]1CC[C@H](NS(=O)(=O)c2ccc3nc(-c4ccccc4)ccc3c2)CC1)c1ccc(F)cc1 [Example 202, (1r,4R)-N-((R)-1-(4-fluorophenyl)ethyl)-4-(2-phenylquinoline-6-sulfonamido)cyclohexanecarboxamide] | 20 nM |
| C[C@@H](NC(=O)[C@H]1CC[C@H](NS(=O)(=O)c2ccc3nc(NCCC(=O)O)ccc3c2)CC1)c1ccc(F)cc1 [Example 203, 3-(6-(N-((1R,4r)-4-((R)-1-(4-fluorophenyl)ethylcarbamoyl)cyclohexyl)sulfamoyl)quinolin-2-ylamino)propanoic acid] | 305 nM |
| CCOc1ccc2cc(S(=O)(=O)N[C@H]3CC[C@H](C(=O)N4CCNCC4c4ccccc4)CC3)ccc2n1 (some centres unmarked) [Example 204, 2-ethoxy-N-((1r,4r)-4-(2-phenylpiperazine-1-carbonyl)cyclohexyl)quinoline-6-sulfonamide] | 80 nM |
| CCOc1ccc2cc(S(=O)(=O)NC3CCC(C(=O)NC(CO)c4ccccc4)CC3)ccc2n1 [Example 205, (1r,4S)-4-(2-ethoxyquinoline-6-sulfonamido)-N-((S)-2-hydroxy-1-phenylethyl)cyclohexanecarboxamide] | 20 nM |
| CCOc1ccc2cc(S(=O)(=O)N[C@H]3CC[C@H](C(=O)N[C@@H](c4ccccc4)C(C)(C)O)CC3)ccc2n1 [Example 206, (1r,4S)-4-(2-ethoxyquinoline-6-sulfonamido)-N-((S)-2-hydroxy-2-methyl-1-phenylpropyl)cyclohexanecarboxamide] | 20 nM |
| COCCNC(=O)c1ccc2cc(S(=O)(=O)N[C@H]3CC[C@H](C(=O)N[C@H](C)c4ccc(F)cc4)CC3)ccc2n1 [Example 207, 6-(N-((1R,4r)-4-((R)-1-(4-fluorophenyl)ethylcarbamoyl)cyclohexyl)sulfamoyl)-N-(2-methoxyethyl)quinoline-2-carboxamide] | 355 nM |
| CCOC(=O)N1CCNc2ncc(S(=O)(=O)N[C@H]3CC[C@H](C(=O)N[C@H](C)c4ccc(F)cc4)CC3)cc21 [Example 209, ethyl 7-(N-((1R,4r)-4-((R)-1-(4-fluorophenyl)ethylcarbamoyl)cyclohexyl)sulfamoyl)-3,4-dihydropyrido[3,2-b]pyrazine-1(2H)-carboxylate] | 20 nM |
| C[C@@H](NC(=O)[C@H]1CC[C@H](NS(=O)(=O)c2cnc3c(c2)N(C(=O)OC2CCCCC2)CCN3)CC1)c1ccc(F)cc1 [Example 210, cyclohexyl 7-(N-((1R,4r)-4-((R)-1-(4-fluorophenyl)ethylcarbamoyl)cyclohexyl)sulfamoyl)-3,4-dihydropyrido[3,2-b]pyrazine-1(2H)-carboxylate] | 225 nM |
| CCOc1ccc2cc(S(=O)(=O)N[C@H]3CC[C@H](C(=O)N[C@H](CC(=O)OC(C)(C)C)c4ccccc4)CC3)ccc2n1 [Example 211, (R)-tert-butyl 3-((1r,4R)-4-(2-ethoxyquinoline-6-sulfonamido)cyclohexanecarboxamido)-3-phenylpropanoate] | 180 nM |
| CC(C)COC(=O)N1CCC(C)(C)c2ccc(S(=O)(=O)N[C@H]3CC[C@H](C(=O)N[C@H](C)c4ccc(F)cc4)CC3)cc21 [Example 212, isobutyl 7-(N-((1R,4r)-4-((R)-1-(4-fluorophenyl)ethylcarbamoyl)cyclohexyl)sulfamoyl)-4,4-dimethyl-3,4-dihydroquinoline-1(2H)-carboxylate] | 165 nM |
| C[C@@H](NC(=O)[C@H]1CC[C@H](NS(=O)(=O)c2ccc3nc(N4CCOCC4)ccc3c2)CC1)c1ccc(F)cc1 [Example 213, (1r,4R)-N-((R)-1-(4-fluorophenyl)ethyl)-4-(2-morpholinoquinoline-6-sulfonamido)cyclohexanecarboxamide] | 95 nM |
| CC(C)COC(=O)N1CCN(C(=O)OCC(C)C)c2cc(S(=O)(=O)N[C@H]3CC[C@H](C(=O)N[C@H](C)c4ccc(F)cc4)CC3)ccc21 [Example 214, diisobutyl 6-(N-((1R,4r)-4-((R)-1-(4-fluorophenyl)ethylcarbamoyl)cyclohexyl)sulfamoyl)-2,3-dihydroquinoxaline-1,4-dicarboxylate] | 365 nM |
| C[C@@H](NC(=O)[C@H]1CC[C@H](NS(=O)(=O)c2ccc3nc(NCCN(C)C)ccc3c2)CC1)c1ccc(F)cc1 [Example 215, (1r,4R)-4-(2-(2-(dimethylamino)ethylamino)quinoline-6-sulfonamido)-N-((R)-1-(4-fluorophenyl)ethyl)cyclohexanecarboxamide] | 125 nM |
| C[C@@H](NC(=O)[C@H]1CC[C@H](NS(=O)(=O)c2ccc3nc(N4CCCCC4)ccc3c2)CC1)c1ccc(F)cc1 [Example 216, (1r,4R)-N-((R)-1-(4-fluorophenyl)ethyl)-4-(2-(piperidin-1-yl)quinoline-6-sulfonamido)cyclohexanecarboxamide] | 180 nM |
| CC(C)COC(=O)N1CCNc2ccc(S(=O)(=O)N[C@H]3CC[C@H](C(=O)N[C@H](C)c4ccc(F)cc4)CC3)cc21 [Example 217, isobutyl 7-(N-((1R,4r)-4-((R)-1-(4-fluorophenyl)ethylcarbamoyl)cyclohexyl)sulfamoyl)-3,4-dihydroquinoxaline-1(2H)-carboxylate] | 15 nM |
| C[C@@H](NC(=O)[C@H]1CC[C@H](NS(=O)(=O)c2ccc3nc(-c4cccnc4)ccc3c2)CC1)c1ccc(F)cc1 [Example 218, (1r,4R)-N-((R)-1-(4-fluorophenyl)ethyl)-4-(2-(pyridin-3-yl)quinoline-6-sulfonamido)cyclohexanecarboxamide] | 20 nM |
| C[C@@H](NC(=O)[C@H]1CC[C@H](NS(=O)(=O)c2ccc3nc(CCC(=O)O)ccc3c2)CC1)c1ccc(F)cc1 [Example 219, 3-(6-(N-((1R,4r)-4-((R)-1-(4-fluorophenyl)ethylcarbamoyl)cyclohexyl)sulfamoyl)quinolin-2-yl)propanoic acid] | 495 nM |
| CC(C)CCC(=O)N1CCNc2ncc(S(=O)(=O)N[C@H]3CC[C@H](C(=O)N[C@H](C)c4ccc(F)cc4)CC3)cc21 [Example 220, (1r,4R)-N-((R)-1-(4-fluorophenyl)ethyl)-4-(1-(4-methylpentanoyl)-1,2,3,4-tetrahydropyrido[3,2-b]pyrazine-7-sulfonamido)cyclohexanecarboxamide] | 875 nM |
| COC(=O)N1CCNc2ccc(S(=O)(=O)NC3CCC(C(=O)NC(C)c4ccc(F)cc4)CC3)cc21 [Example 221, methyl 7-(N-((1R,4r)-4-((R)-1-(4-fluorophenyl)ethylcarbamoyl)cyclohexyl)sulfamoyl)-3,4-dihydroquinoxaline-1(2H)-carboxylate] | < 10 nM |
